Measurements: patent US20060293307A1, “Oxazolidinone derivatives as antimicrobials” (priority 2002, published 2006)
Converted amounts (≈) assume the structure as drawn. Like-named read-outs stand apart in the source and are kept apart here.

Key:
M. tuberculosis ATCC = experiment: MIC against M. tuberculosis strains, agar dilution; format: cell-based, Mycobacterium tuberculosis; conditions: S. No. 03 Mt-, Middle Brook 7H10 + OADC, 37° C., 14-21 days
M. tuberculosis PC [1] = experiment: MIC against M. tuberculosis strains, agar dilution; format: cell-based, Mycobacterium tuberculosis; conditions: S. No. 17 Mt-, Middle Brook 7H10 + OADC, 37° C., 14-21 days
M. tuberculosis PC [2] = experiment: MIC against M. tuberculosis strains, agar dilution; format: cell-based, Mycobacterium tuberculosis; conditions: S. No. 20 Mt-, Middle Brook 7H10 + OADC, 37° C., 14-21 days
M. tuberculosis PC [3] = experiment: MIC against M. tuberculosis strains, agar dilution; format: cell-based, Mycobacterium tuberculosis; conditions: S. No. 16 Mt-, Middle Brook 7H10 + OADC, 37° C., 14-21 days
M avium ATCC 700897 = experiment: MIC against MAC strains, agar dilution; format: cell-based, Mycobacterium avium; conditions: S. No. 05 Ma-6, M avium ATCC 700897, Middle Brook 7H10 + OADC, 37° C., 14-21 days
M. tuberculosis M-164 = experiment: MIC against M. tuberculosis strains, agar dilution; format: cell-based, Mycobacterium tuberculosis; conditions: Middle Brook 7H10 + OADC, 37° C., 14-21 days
[4] = tested on: M. avium intracellulare 4; experiment: MIC against MAC strains, agar dilution; format: cell-based; conditions: S. No. 11 Mai-2, M. avium intracellulare 4, Middle Brook 7H10 + OADC, 37° C., 14-21 days
M. tuberculosis M-168 = experiment: MIC against M. tuberculosis strains, agar dilution; format: cell-based, Mycobacterium tuberculosis; conditions: Middle Brook 7H10 + OADC, 37° C., 14-21 days
M. tuberculosis B-125 = experiment: MIC against M. tuberculosis strains, agar dilution; format: cell-based, Mycobacterium tuberculosis; conditions: S. No. 11 Mt-, Middle Brook 7H10 + OADC, 37° C., 14-21 days
M. tuberculosis PC [5] = experiment: MIC against M. tuberculosis strains, agar dilution; format: cell-based, Mycobacterium tuberculosis; conditions: S. No. 22 Mt-, Middle Brook 7H10 + OADC, 37° C., 14-21 days
M. tuberculosis H37Ra = experiment: MIC against M. tuberculosis strains, agar dilution; format: cell-based, Mycobacterium tuberculosis; conditions: S. No. 24 Mt-, Middle Brook 7H10 + OADC, 37° C., 14-21 days
[6] = tested on: M. avium intracellulare 1211/96; experiment: MIC against MAC strains, agar dilution; format: cell-based; conditions: S. No. 13 Mai-5, M. avium intracellulare 1211/96, Middle Brook 7H10 + OADC, 37° C., 14-21 days
M. bovis ATCC 19210 = format: cell-based; conditions: S. No. 18 NTM, Middle Brook 7H10 + OADC, 37° C., 14-21 days
M. tuberculosis PC [7] = experiment: MIC against M. tuberculosis strains, agar dilution; format: cell-based, Mycobacterium tuberculosis; conditions: S. No. 18 Mt-, Middle Brook 7H10 + OADC, 37° C., 14-21 days
M. tuberculosis V-591 = experiment: MIC against M. tuberculosis strains, agar dilution; format: cell-based, Mycobacterium tuberculosis; conditions: Middle Brook 7H10 + OADC, 37° C., 14-21 days
M. tuberculosis PC [8] = experiment: MIC against M. tuberculosis strains, agar dilution; format: cell-based, Mycobacterium tuberculosis; conditions: S. No. 19 Mt-, Middle Brook 7H10 + OADC, 37° C., 14-21 days
M. tuberculosis SGPGI = experiment: MIC against M. tuberculosis strains, agar dilution; format: cell-based, Mycobacterium tuberculosis; conditions: S. No. 06 Mt-, Middle Brook 7H10 + OADC, 37° C., 14-21 days
M. tuberculosis PC 4793 = experiment: MIC against M. tuberculosis strains, agar dilution; format: cell-based, Mycobacterium tuberculosis; conditions: Middle Brook 7H10 + OADC, 37° C., 14-21 days
H. influenzae 23 = experiment: MIC against Haemophilus strains; format: cell-based; conditions: Haemophilus influenzae; s. No. 5, H. influenzae 23; read-out: MIC
H. influenzae ATCC 49247 = experiment: MIC against Haemophilus strains; format: cell-based; conditions: Haemophilus influenzae, ATCC49247; s. No. 2, H. influenzae ATCC 49247; read-out: MIC
S. warnerii ST360 = experiment: MIC, agar incorporation method; format: cell-based
H. influenzae R = experiment: MIC against Haemophilus strains; format: cell-based; conditions: Haemophilus influenzae; s. No. 4, H. influenzae R; read-out: MIC
H. influenzae P318 = experiment: MIC against Haemophilus strains; format: cell-based; conditions: Haemophilus influenzae; s. No. 10, H. influenzae P318; read-out: MIC
[9] = Mycobacterium tuberculosis, read-out: MIC
[10] = Mycobacterium tuberculosis, M164, S. No. 10 Mt-, read-out: MIC
[11] = Mycobacterium avium, read-out: MIC
[12] = Mycobacterium tuberculosis, M168, S. No. 09 Mt-, read-out: MIC
[13] = Mycobacterium tuberculosis, V591, S. No. 13 Mt-, read-out: MIC
[14] = Mycobacterium tuberculosis, PC4793, S. No. 23 Mt-, read-out: MIC

## CC[C@H]1OC(=O)[C@H](C)[C@@H](O[C@H]2C[C@@](C)(OC)[C@@H](O)[C@H](C)O2)[C@H](C)[C@@H](O[C@@H]2O[C@H](C)C[C@H](N(C)C)[C@H]2O)[C@](C)(OC)C[C@@H](C)C(=O)[C@H](C)[C@@H](O)[C@]1(C)O [CLA]
M. tuberculosis ATCC
  MIC: 32 µg/mL
M. tuberculosis PC [1]
  MIC: 4.0 µg/mL
M. tuberculosis PC [2]
  MIC: 4.0 µg/mL
M. tuberculosis PC [3]
  MIC: 8.0 µg/mL
M avium ATCC 700897
  MIC: 2.0 µg/mL
M. tuberculosis M-164; S. No. 10 Mt-
  MIC: 16 µg/mL
[4]
  MIC: <0.25 µg/mL
M. tuberculosis M-168; S. No. 09 Mt-
  MIC: 8.0 µg/mL
M. tuberculosis B-125
  MIC: 16 µg/mL
M. tuberculosis PC [5]
  MIC: 8.0 µg/mL
M. tuberculosis H37Ra
  MIC: <0.25 µg/mL
[6]
  MIC: 0.25 µg/mL
M. bovis ATCC 19210
  MIC: 32 µg/mL
M. tuberculosis PC [7]
  MIC: 32 µg/mL
M. tuberculosis V-591; S. No. 13 Mt-
  MIC: 32 µg/mL
M. tuberculosis PC [8]
  MIC: 8.0 µg/mL
M. tuberculosis SGPGI
  MIC: 32 µg/mL
M. tuberculosis PC 4793; S. No. 23 Mt-
  MIC: 8.0 µg/mL

## CC(=O)NC[C@H]1CN(c2ccc(N3CCN(c4ccc([N+](=O)[O-])s4)CC3)c(F)c2)C(=O)O1 [Compound No. 1, (S)—N-[[3-[3-Fluoro-4-[4-(5-nitro-2-thienyl)-1-piperazinyl]phenyl]-2-oxo-5-oxazolidinyl]methyl]acetamide]
H. influenzae 23
  MIC: > 16 µg/mL
M. tuberculosis PC [1]; [9]
  MIC: 0.25 µg/mL
M. tuberculosis PC [2]; [9]
  MIC: 0.25 µg/mL
M. tuberculosis PC [3]; [9]
  MIC: 0.25 µg/mL
M avium ATCC 700897; Mycobacterium avium, ATCC700897, read-out: MIC
  MIC: < 0.123 µg/mL
M. tuberculosis M-164; [10]
  MIC: 0.5 µg/mL
other
  melting point: 171 to 174 °C
[4]; [11]
  MIC: < 0.125 µg/mL
M. tuberculosis M-168; [12]
  MIC: 0.25 µg/mL
H. influenzae ATCC 49247
  MIC: 8 µg/mL (≈ 17.3 µM)
S. warnerii ST360
  MIC: 0.125 µg/mL (≈ 0.27 µM)
H. influenzae R
  MIC: 8 µg/mL (≈ 17.3 µM)
M. tuberculosis PC [5]; [9]
  MIC: 0.5 µg/mL
M. tuberculosis H37Ra; [9]
  MIC: ≤ 0.125 µg/mL
[6]; [11]
  MIC: 8 µg/mL
M. tuberculosis PC [7]; [9]
  MIC: 0.25 µg/mL
H. influenzae P318
  MIC: 16 µg/mL (≈ 34.5 µM)
M. tuberculosis V-591; [13]
  MIC: 0.5 µg/mL
M. tuberculosis PC [8]; [9]
  MIC: ≤ 0.125 µg/mL
M. tuberculosis SGPGI; [9]
  MIC: 1 µg/mL
M. tuberculosis PC 4793; [14]
  MIC: > 32 µg/mL

## CCc1cc(C(N)=S)ccn1 [ETH]
M. tuberculosis ATCC
  MIC: 2.0 µg/mL
M. tuberculosis PC [1]
  MIC: 32 µg/mL
M. tuberculosis PC [2]
  MIC: 16 µg/mL
M. tuberculosis PC [3]
  MIC: 32 µg/mL
M avium ATCC 700897
  MIC: >32 µg/mL
M. tuberculosis M-164; S. No. 10 Mt-
  MIC: >32 µg/mL
[4]
  MIC: 4.0 µg/mL
M. tuberculosis M-168; S. No. 09 Mt-
  MIC: >32 µg/mL
M. tuberculosis B-125
  MIC: 2.0 µg/mL
M. tuberculosis PC [5]
  MIC: >32 µg/mL
M. tuberculosis H37Ra
  MIC: 2.0 µg/mL
[6]
  MIC: 1.0 µg/mL
M. bovis ATCC 19210
  MIC: 2.0 µg/mL
M. tuberculosis PC [7]
  MIC: 1.0 µg/mL
M. tuberculosis V-591; S. No. 13 Mt-
  MIC: >32 µg/mL
M. tuberculosis PC [8]
  MIC: 1.0 µg/mL
M. tuberculosis SGPGI
  MIC: >32 µg/mL
M. tuberculosis PC 4793; S. No. 23 Mt-
  MIC: >32 µg/mL

## NNC(=O)c1ccncc1 [INH]
M. tuberculosis ATCC
  MIC: >32 µg/mL
M. tuberculosis PC [1]
  MIC: 32 µg/mL
M. tuberculosis PC [2]
  MIC: 16 µg/mL
M. tuberculosis PC [3]
  MIC: 8.0 µg/mL
M avium ATCC 700897
  MIC: 4.0 µg/mL
M. tuberculosis M-164; S. No. 10 Mt-
  MIC: >32 µg/mL
[4]
  MIC: 2.0 µg/mL
M. tuberculosis M-168; S. No. 09 Mt-
  MIC: 4.0 µg/mL
M. tuberculosis B-125
  MIC: 0.06 µg/mL
M. tuberculosis PC [5]
  MIC: >32 µg/mL
M. tuberculosis H37Ra
  MIC: 0.25 µg/mL
[6]
  MIC: 32 µg/mL
M. bovis ATCC 19210
  MIC: 0.25 µg/mL
M. tuberculosis PC [7]
  MIC: 0.25 µg/mL
M. tuberculosis V-591; S. No. 13 Mt-
  MIC: >32 µg/mL
M. tuberculosis PC [8]
  MIC: 0.25 µg/mL
M. tuberculosis SGPGI
  MIC: 16 µg/mL
M. tuberculosis PC 4793; S. No. 23 Mt-
  MIC: >32 µg/mL

## CC(=O)NC[C@H]1CN(c2ccc(N3CCOCC3)c(F)c2)C(=O)O1 [Linezolid, reference compound]
H. influenzae 23
  MIC: 16 µg/mL (≈ 47.4 µM)
M. tuberculosis ATCC; [9]
  MIC: 1 µg/mL
M. tuberculosis PC [1]; [9]
  MIC: 32 µg/mL
M. tuberculosis PC [2]; [9]
  MIC: 32 µg/mL
M. tuberculosis PC [3]; [9]
  MIC: 32 µg/mL
M. tuberculosis M-164; [10]
  MIC: 32 µg/mL
[4]; [11]
  MIC: 8 µg/mL
M. tuberculosis M-168; [12]
  MIC: 4 µg/mL
H. influenzae ATCC 49247
  MIC: 8 µg/mL (≈ 23.7 µM)
S. warnerii ST360
  MIC: < 0.5 µg/mL
H. influenzae R
  MIC: 16 µg/mL (≈ 47.4 µM)
M. tuberculosis PC [5]; [9]
  MIC: 32 µg/mL
M. tuberculosis H37Ra; [9]
  MIC: 0.5 µg/mL
M. tuberculosis PC [7]; [9]
  MIC: 0.5 µg/mL
H. influenzae P318
  MIC: 16 µg/mL (≈ 47.4 µM)
M. tuberculosis V-591; [13]
  MIC: > 32 µg/mL
M. tuberculosis PC [8]; [9]
  MIC: 0.5 µg/mL
M. tuberculosis SGPGI; [9]
  MIC: > 32 µg/mL
M. tuberculosis PC 4793; [14]
  MIC: 8 µg/mL

## C[C@@H]1CN(c2c(F)c(N)c3c(=O)c(C(=O)O)cn(C4CC4)c3c2F)C[C@H](C)N1 [SPAR]
M. tuberculosis ATCC
  MIC: ≦0.125 μg/ml
M. tuberculosis PC [1]
  MIC: 8.0 µg/mL
M. tuberculosis PC [2]
  MIC: 8.0 µg/mL
M. tuberculosis PC [3]
  MIC: 2.0 µg/mL
M avium ATCC 700897
  MIC: 2.0 µg/mL
M. tuberculosis M-164; S. No. 10 Mt-
  MIC: 1.0 µg/mL
[4]
  MIC: 1.0 µg/mL
M. tuberculosis M-168; S. No. 09 Mt-
  MIC: 2.0 µg/mL
M. tuberculosis B-125
  MIC: ≦0.125 μg/ml
M. tuberculosis PC [5]
  MIC: 4.0 µg/mL
M. tuberculosis H37Ra
  MIC: ≦0.12 μg/ml
[6]
  MIC: 4.0 µg/mL
M. bovis ATCC 19210
  MIC: <0.12 µg/mL
M. tuberculosis PC [7]
  MIC: ≦0.125 μg/ml
M. tuberculosis V-591; S. No. 13 Mt-
  MIC: 2.0 µg/mL
M. tuberculosis PC [8]
  MIC: ≦0.125 μg/ml
M. tuberculosis SGPGI
  MIC: 4.0 µg/mL
M. tuberculosis PC 4793; S. No. 23 Mt-
  MIC: 4.0 µg/mL
